{"source": "patent US20230079045A1", "about": "(priority 2019, published 2023)"}
{"test_system": "IFVA/Weiss/43", "assay": "cytopathic effect (CPE) antiviral test in MDCK cells, IFVA/Weiss/43", "assay_type": "cell-based, influenza virus", "conditions": "unidentified influenza virus, MDCK, 120 h, read-out: EC50(IFVA/Weiss/43), MDCK cells, CPE method, CCK-8 cell viability, 5 days", "units": {"EC50": "nM"}}
{"smiles": "O=C(Nc1ccc2oc(-c3ccnc(C(=O)N4CCN(C(c5ccccc5)c5nnn(C(F)F)n5)CC4)c3)nc2c1)[C@H]1C[C@@H]1F", "note": "(mixture of isomers) [Compound 95, (1R,2S)—N-(2-(2-(4-((R/S)-(2-(difluoromethyl)-2H-tetrazol-5-yl)(phenyl)methyl)piperazine-1-carbonyl)pyridin-4-yl)benzo[d]oxazol-5-yl)-2-fluorocyclopropane-1-carboxamide]", "EC50": 17}
{"smiles": "CC(=O)Nc1ccc2oc(-c3ccnc(C(=O)N4CCN(C(c5ccccc5)c5nnn(C)n5)[C@H](C)C4)c3)nc2c1", "note": "(mixture of isomers) [Compound 16a, N-(2-(2-((3R)-3-methyl-4-((2-methyl-2H-tetrazol-5-yl)(phenyl)methyl)piperazine-1-carbonyl)pyridin-4-yl)benzo[d]oxazol-5-yl)acetamide]", "EC50": 7160}
{"test_system": "IFV A/PR/8/34", "assay": "cytopathic effect (CPE) antiviral test in MDCK cells, IFV A/PR/8/34", "assay_type": "cell-based, influenza virus", "conditions": "unidentified influenza virus, PR/8, MDCK, 120 h, read-out: EC50(IFV A/PR/8/34)", "units": {"EC50": "nM"}}
{"smiles": "CC(C)(F)C(=O)Nc1ccc2oc(-c3ccnc(C(=O)N4CCC(C(c5ccccc5)n5nnc(C(F)F)n5)CC4)c3)nc2c1", "note": "(racemic) [Compound 164, (R/S)—N-(2-(2-(4-((5-(difluoromethyl)-2H-tetrazol-2-yl)(phenyl)methyl)piperidine-1-carbonyl)pyridin-4-yl)benzo[d]oxazol-5-yl)-2-fluoro-2-methylpropanamide]", "EC50": 13}
{"smiles": "Cn1cc(-c2ccc3oc(-c4ccnc(C(=O)N5CCN(C(c6ccccc6)c6nnn(C(F)F)n6)CC5)c4)cc3c2)cn1", "note": "(racemic) [Compound 165, (R/S)-(4-((2-(difluoromethyl)-2H-tetrazol-5-yl)(phenyl)methyl)piperazin-1-yl)(4-(5-(1-methyl-1H-pyrazol-4-yl)benzofuran-2-yl)pyridin-2-yl)methanone]", "EC50": 10}
{"smiles": "Cn1cncc1-c1ccc2oc(-c3ccnc(C(=O)N4CCC(C(c5ccccc5)n5nnc(C(F)F)n5)CC4)c3)nc2c1", "note": "(racemic) [Compound 166, (R/S)-(4-((5-(difluoromethyl)-2H-tetrazol-2-yl)(phenyl)methyl)piperidin-1-yl)(4-(5-(1-methyl-1H-imidazol-5-yl)benzo[d]oxazol-2-yl)pyridin-2-yl)methanone]", "EC50": 6}
{"smiles": "Cc1nnn(C(c2ccccc2)C2CCN(C(=O)c3cc(-c4nc5cc(-c6cncn6C)ccc5o4)ccn3)CC2)n1", "note": "(racemic) [Compound 167, (R/S)-(4-(5-(1-methyl-1H-imidazol-5-yl)benzo[d]oxazol-2-yl)pyridin-2-yl)(4-((5-methyl-2H-tetrazol-2-yl)(phenyl)methyl)piperidin-1-yl)methanone]", "EC50": 5}
{"smiles": "O=C(c1cc(-c2nc3cc(-c4cn(C(F)F)cn4)ccc3o2)ccn1)N1CCN(C(c2ccccc2)c2nnn(C(F)F)n2)CC1", "note": "(racemic) [Compound 170, (R/S)-(4-(5-(1-(difluoromethyl)-1H-imidazol-4-yl)benzo[d]oxazol-2-yl)pyridin-2-yl)(4-((2-(difluoromethyl)-2H-tetrazol-5-yl)(phenyl)methyl)piperazin-1-yl)methanone]", "EC50": 7}
{"smiles": "O=C(c1cc(-c2nc3cc(-c4cncn4C(F)F)ccc3o2)ccn1)N1CCN(C(c2ccccc2)c2nnn(C(F)F)n2)CC1", "note": "(racemic) [Compound 171, (R/S)-(4-(5-(1-(difluoromethyl)-1H-imidazol-5-yl)benzo[d]oxazol-2-yl)pyridin-2-yl)(4-((2-(difluoromethyl)-2H-tetrazol-5-yl)(phenyl)methyl)piperazin-1-yl)methanone]", "EC50": 5}
{"smiles": "O=C(c1cc(-c2nc3cc(-c4cnoc4)ccc3o2)ccn1)N1CCN(C(c2ccccc2)c2nnn(C(F)F)n2)CC1", "note": "(racemic) [Compound 174, (R/S)-(4-((2-(difluoromethyl)-2H-tetrazol-5-yl)(phenyl)methyl)piperazin-1-yl)(4-(5-(isoxazol-4-yl)benzo[d]oxazol-2-yl)pyridin-2-yl)methanone]", "EC50": 15}
{"smiles": "Cc1nnn(C(c2ccccc2)C2CCN(C(=O)c3cc(-c4nc5cc(-c6ccn(C)n6)ccc5o4)ccn3)CC2)n1", "note": "(racemic) [Compound 183, (R/S)-(4-(5-(1-methyl-1H-pyrazol-3-yl)benzo[d]oxazol-2-yl)pyridin-2-yl)(4-((5-methyl-2H-tetrazol-2-yl)(phenyl)methyl)piperidin-1-yl)methanone]", "EC50": 18}
{"smiles": "Cc1nnn(C(c2ccccc2)C2CCN(C(=O)c3cc(-c4cc5cc(-c6cncn6C)ccc5o4)ccn3)CC2)n1", "note": "(racemic) [Compound 186, (R/S)-(4-(5-(1-methyl-1H-imidazol-5-yl)benzofuran-2-yl)pyridin-2-yl)(4-((5-methyl-2H-tetrazol-2-yl)(phenyl)methyl)piperidin-1-yl)methanone]", "EC50": 2}
{"smiles": "Cc1nnn(C(c2ccccc2)C2CCN(C(=O)c3cc(-c4nc5cc(-c6cnn(C)c6C)ccc5o4)ccn3)CC2)n1", "note": "(racemic) [Compound 187, (R/S)-(4-(5-(1,5-dimethyl-1H-pyrazol-4-yl)benzo[d]oxazol-2-yl)pyridin-2-yl)(4-((5-methyl-2H-tetrazol-2-yl)(phenyl)methyl)piperidin-1-yl)methanone]", "EC50": 6}
{"smiles": "Cc1cn(-c2ccc3oc(-c4ccnc(C(=O)N5CCC(C(c6ccccc6)n6nnc(C)n6)CC5)c4)nc3c2)cn1", "note": "(racemic) [Compound 189, (R/S)-(4-(5-(4-methyl-1H-imidazol-1-yl)benzo[d]oxazol-2-yl)pyridin-2-yl)(4-((5-methyl-2H-tetrazol-2-yl)(phenyl)methyl)piperidin-1-yl)methanone]", "EC50": 11}
{"smiles": "[2H]C([2H])([2H])c1nnn(C(c2ccccc2)C2CCN(C(=O)c3cc(-c4nc5cc(NC(=O)[C@@H]6C[C@@H]6F)ccc5o4)ccn3)CC2)n1", "note": "(mixture of isomers) [Compound 201, (1S,2S)-2-fluoro-N-(2-(2-(4-((R/S)-(5-(methyl-d3)-2H-tetrazol-2-yl)(phenyl)methyl)piperidine-1-carbonyl)pyridin-4-yl)benzo[d]oxazol-5-yl)cyclopropane-1-carboxamide]", "EC50": 3.6}
{"smiles": "O=C(c1cc(-c2nc3cc(-c4cncn4C(F)F)ccc3o2)ccn1)N1CCC(C(c2ccccc2)n2nnc(CO)n2)CC1", "note": "(racemic) [Compound 206, (R/S)-(4-(5-(1-(difluoromethyl)-1H-imidazol-5-yl)benzo[d]oxazol-2-yl)pyridin-2-yl)(4-((5-(hydroxymethyl)-2H-tetrazol-2-yl)(phenyl)methyl)piperidin-1-yl)methanone]", "EC50": 4.5}
{"smiles": "O=C(c1cc(-c2nc3cc(-c4cn(C(F)F)cn4)ccc3o2)ccn1)N1CCC(C(c2ccccc2)n2nnc(CO)n2)CC1", "note": "(racemic) [Compound 207, (R/S)-(4-(5-(1-(difluoromethyl)-1H-imidazol-4-yl)benzo[d]oxazol-2-yl)pyridin-2-yl)(4-((5-(hydroxymethyl)-2H-tetrazol-2-yl)(phenyl)methyl)piperidin-1-yl)methanone]", "EC50": 1.3}
{"smiles": "Cc1nnn(C(c2ccccc2)C2CCN(C(=O)c3cc(-c4nc5ccc(NC(=O)[C@@H]6C[C@@H]6F)cc5o4)ccn3)CC2)n1", "note": "(single isomer, unassigned) [Compound 134]", "EC50": 4}
{"smiles": "Cc1nnn(C(c2ccc(F)cc2)C2CCN(C(=O)c3cc(-c4nc5cc(NC(=O)[C@@H]6C[C@@H]6F)ccc5o4)ccn3)CC2)n1", "note": "(single isomer, unassigned) [Compound 202]", "EC50": 2.6}
{"smiles": "[2H]C([2H])([2H])C(C(=O)Nc1ccc2oc(-c3ccnc(C(=O)N4CCN([C@H](c5ccccc5)c5nnn(C(F)F)n5)CC4)c3)cc2c1)C([2H])([2H])[2H]", "note": "[Compound 136, 3,3,3-trideuterio-N-[2-[2-[4-[(R)-[2-(difluoromethyl)tetrazol-5-yl]-phenyl-methyl]piperazine-1-carbonyl]-4-pyridyl]benzofuran-5-yl]-2-(trideuteriomethyl)propanamide]", "EC50": 8}
{"smiles": "Cc1nnn([C@@H](c2ccccc2)C2CCN(C(=O)c3cc(-c4cc5cc(NC(=O)[C@@H]6C[C@@H]6F)ccc5o4)ccn3)CC2)n1", "note": "[Compound 139, (1S,2S)-2-fluoro-N-(2-(2-(4-((R)-(5-methyl-2H-tetrazol-2-yl)(phenyl)methyl)piperidine-1-carbonyl)pyridin-4-yl)benzofuran-5-yl)cyclopropanecarboxamide]", "EC50": 4}
{"smiles": "[2H]C([2H])([2H])n1nnc(C(c2ccccc2)N2CCN(C(=O)c3cc(-c4nc5cc(NC(=O)[C@@H]6C[C@@H]6F)ccc5o4)ccn3)CC2)n1", "note": "(stereo partly drawn) [Compound 178, (1S,2S)-2-fluoro-N-(2-(2-(4-((R)-(2-Deuteratedmethyl-2H-tetrazol-5-yl)(phenyl)methyl)piperazine-1-carbonyl)pyridin-4-yl)benzo[d]oxazol-5-yl)cyclopropanecarboxamide]", "EC50": 7}
{"smiles": "Cc1nnn([C@@H](c2ccsc2)C2CCN(C(=O)c3cc(-c4nc5cc(NC(=O)[C@@H]6C[C@@H]6F)ccc5o4)ccn3)CC2)n1", "note": "[Compound 203, (1S,2S)-2-fluoro-N-(2-(2-(4-((R)-(5-methyl-2H-tetrazol-2-yl)(thiophen-3-yl)methyl)piperidine-1-carbonyl)pyridin-4-yl)benzo[d]oxazol-5-yl)cyclopropanecarboxamide]", "EC50": 19}
{"smiles": "[2H]c1c([2H])c([2H])c([C@@H](C2CCN(C(=O)c3cc(-c4nc5cc(NC(=O)[C@@H]6C[C@@H]6F)ccc5o4)ccn3)CC2)n2nnc(C)n2)c([2H])c1[2H]", "note": "[Compound 205, (1S,2S)-2-fluoro-N-[2-[2-[4-[(R)-(5-methyltetrazol-2-yl)-(2,3,4,5,6-pentadeuteriophenyl)methyl]piperidine-1-carbonyl]-4-pyridyl]-1,3-benzoxazol-5-yl]cyclopropanecarboxamide]", "EC50": 5.5}
{"smiles": "O=C(c1cc(-c2nc3cc(-c4cn(C(F)F)cn4)ccc3o2)ccn1)N1CCC(C(c2ccccc2)n2nnc(CO)n2)CC1", "note": "(centres unmarked) [Compound 217, (4-(5-(1-(difluoromethyl)-1H-imidazol-4-yl)benzo[d]oxazol-2-yl)pyridin-2-yl)(4-((5-(hydroxymethyl)-2H-tetrazol-2-yl)(phenyl)methyl)piperidin-1-yl)methanone]", "EC50": 3.3}
{"test_system": "IFVA/Mal/302/54", "assay": "cytopathic effect (CPE) antiviral test in MDCK cells, IFVA/Mal/302/54", "assay_type": "cell-based, influenza virus", "conditions": "unidentified influenza virus, MDCK, 120 h, read-out: EC50(IFVA/Mal/302/54), MDCK cells, CPE method, CCK-8 cell viability, 5 days", "units": {"EC50": "nM"}}
{"smiles": "O=C(Nc1ccc2oc(-c3ccnc(C(=O)N4CCN(C(c5ccccc5)c5nnn(C(F)F)n5)CC4)c3)nc2c1)[C@H]1C[C@@H]1F", "note": "(mixture of isomers) [Compound 95, (1R,2S)—N-(2-(2-(4-((R/S)-(2-(difluoromethyl)-2H-tetrazol-5-yl)(phenyl)methyl)piperazine-1-carbonyl)pyridin-4-yl)benzo[d]oxazol-5-yl)-2-fluorocyclopropane-1-carboxamide]", "EC50": 10}
{"smiles": "CC(=O)Nc1ccc2oc(-c3ccnc(C(=O)N4CCN(C(c5ccccc5)c5nnn(C)n5)[C@H](C)C4)c3)nc2c1", "note": "(mixture of isomers) [Compound 16a, N-(2-(2-((3R)-3-methyl-4-((2-methyl-2H-tetrazol-5-yl)(phenyl)methyl)piperazine-1-carbonyl)pyridin-4-yl)benzo[d]oxazol-5-yl)acetamide]", "EC50": "> 10000"}
